# Measured values from the supplement of paper PMC10307832.
# Tests used:
# Assay in all cases: relative viability (nuclei count vs DMSO), 5 days (fraction); higher = more cells survive
# [1] = compound: CCC1=CN=CN=C1N2CCN(CC2)CC3=NC4=C(N3)C=C(C=C4)C(F)(F)F + NC(=O)Nc1cc(-c2cccc(F)c2)sc1C(=O)N[C@H]1CCCNC1 [AZD7762] (partner 0.2 µM)
# In short: (§1)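 Each reported value is a median over duplicate plates. It expresses relative viability: treated-well nuclei count divided by vehicle-well nuclei count. Lung cancer cell lines in 1536-well plates were dosed by pin tool a day after seeding, alone with one drug or with a fixed anchor-drug dose plus five library-drug doses (not always all listed) in √10 steps, and nuclei were counted after 5 days.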
# [2] = compound: CCC1=CN=CN=C1N2CCN(CC2)CC3=NC4=C(N3)C=C(C=C4)C(F)(F)F + CCNC(=O)c1noc(-c2cc(C(C)C)c(O)cc2O)c1-c1ccc(CN2CCOCC2)cc1 [Luminespib] (partner 0.01 µM)
# In short: as §1
# Mirin + Pictilisib = compound: N=C1NC(=O)/C(=C/c2ccc(O)cc2)S1 [Mirin] + CS(=O)(=O)N1CCN(Cc2cc3nc(-c4cccc5[nH]ncc45)nc(N4CCOCC4)c3s2)CC1 [Pictilisib] (partner 1 µM)
# In short: as §1
# [3] = compound: CCC1=CN=CN=C1N2CCN(CC2)CC3=NC4=C(N3)C=C(C=C4)C(F)(F)F + CS(=O)(=O)CCNCc1ccc(-c2ccc3ncnc(Nc4ccc(OCc5cccc(F)c5)c(Cl)c4)c3c2)o1 [Lapatinib] (partner 2 µM)
# In short: as §1
Cell Line,relative viability ([1]; first compound 0.04 µM),relative viability ([1]; first compound 0.1265 µM),relative viability ([1]; first compound 0.4 µM),relative viability ([1]; first compound 1.265 µM),relative viability ([1]; first compound 4 µM),relative viability ([2]; first compound 0.04 µM),relative viability ([2]; first compound 0.1265 µM),relative viability ([2]; first compound 0.4 µM),relative viability ([2]; first compound 4 µM),relative viability (Mirin + Pictilisib; first compound 0.25 µM),relative viability (Mirin + Pictilisib; first compound 0.7906 µM),relative viability (Mirin + Pictilisib; first compound 2.5 µM),relative viability (Mirin + Pictilisib; first compound 7.906 µM),relative viability (Mirin + Pictilisib; first compound 25 µM),relative viability ([3]; first compound 0.04 µM),relative viability ([3]; first compound 0.1265 µM),relative viability ([3]; first compound 0.4 µM),relative viability ([3]; first compound 4 µM),relative viability ([2]; first compound 1.265 µM),relative viability ([3]; first compound 1.265 µM)
NCI-H727,0.641,0.593,0.522,0.566,0.541,0.423,0.362,0.306,0.426,0.353,0.443,0.458,0.501,0.515,0.82,0.799,0.802,0.741,,
NCI-H23,0.25,0.202,0.162,0.229,0.325,0.223,0.219,0.21,0.213,0.483,,0.385,0.367,0.373,1.2,1.21,0.966,1.11,0.191,0.982
NCI-H1395,0.398,0.349,0.37,,0.474,0.624,0.775,0.66,0.619,0.578,,0.617,0.549,0.512,0.929,0.938,1.04,1.05,0.651,0.957
NCI-H596,1.21,1.07,1.07,0.992,1.08,1.25,1.02,0.814,1.03,0.447,0.391,0.43,0.361,0.345,0.982,1.13,0.927,1.23,,0.817
NCI-H460,0.622,0.528,0.619,0.578,0.6,0.0311,0.0367,0.0386,0.0253,0.347,0.152,0.347,0.333,0.235,1.09,0.973,0.878,0.936,0.0407,0.812
